Experimental data from US20090018118A1, “HETEROCYCLIC COMPOUNDS” (priority 2005, published 2009).
Structures can show the parent of a compound that is named as a salt. Where two headings read alike, the source gives them in different places.

What was measured:
[1] = tested on: cholesterol biosynthesis in HepG2 cells; assay: Metabolic labeling of HepG2 cells with [3H]acetate; radio-HPLC sterol profile (inhibition of cholesterol biosynthesis); type: cell-based, human; settings: HepG2; for activity at 10 µM: Homo sapiens, 24 h, Table I, sterol level normalized to normal medium (1.00), mean of 4 experiments
Procedure: In accordance with the aims of the invention, the effect of the novel compounds on inhibition of cholesterol biosynthesis is assessed. An ex vivo method of metabolic labeling of immortal human hepatocytes is employed. The radioactively labeled early precursor of cholesterol [3H]acetate is added to cells with or without addition of an active new compound.
An ex vivo method of metabolic labeling of immortal human hepatocytes is employed. The radioactively labeled early precursor of cholesterol [3H]acetate is added to cells with or without addition of an active compound.
Cell culture incubation with potential inhibitors of cholesterol biosynthesis and statins Human hepatoma cell line (HepG2-ATCC No. HB-8065) is split in the recommended ratio (1:2-3) into 75 cm^2 cell flasks using two flasks per experimental condition. Cells are incubated at 37° C. with 5% CO2 in Dulbeco's modified Eagle medium (DMEM high (Sigma)) containing 5% calf serum (Sigma) and 1% L-glutamine (Sigma). After 24-hours-culturing in the growth medium, the medium is replaced with the one supplemented with 10 μM concentration of a LK compound, potential inhibitor of cholesterol biosynthesis. 10 μM solution of atorvastatin, inhibitor of HMG-CoA reductase, serves as a positive control.
After 24 hours the growth medium is changed and [^3H]acetate (NEN™ Life Science Products) added in a concentration of 40 μCi per ml of the medium (400 μCi per flask). After 4 hours cells are harvested using 2 ml of trypsin (Sigma) and the cell pellet is resuspended in 1 ml of distilled water. Cells are homogenized using the freeze and thaw method. From cell homogenate sterols are extracted and protein concentration determined using the Bio-Rad reagent.
Homogenates are transferred into 4 ml glass vial and sterols are extracted in 3 ml of extraction solution (75% n-heptane: 25% isopropanol (vol./vol.)) with ergosterol as an internal standard. For better extraction 100 μl of 0.3M NaH2PO4 (pH=1.0) is added. Closed vials are vigorously shaken (1800 rpm) for 2 hours. After extraction procedure vials are centrifuged (2000 g, 10 min) and the organic phase is transferred to fresh conical glass tubes. Extraction procedure is repeated using 1 ml of extraction solution for 15 min. Organic phases are pooled. Primary extracts are dried in vacuum centrifuge, redissolved in 3 ml of n-heptane, and incubated for 10 min at room temperature with mild shaking. After centrifugation (10 min, 2000 g) extracts are transferred into fresh glass tubes and stored in dark and cold.
The organic phase is dried, reconstituted in mobile phase for reversed phase HPLC separation and loaded onto a-HPLC column, Prism-RPN, 5 μm, 250×4,6 mm running in 100% acetonitrile at 1.00 ml/min at 40° C. temperature. Scintillation liquid is added after UV detection at 30 ml/h, at room temperature, to evaluate tritium labeled sterols on a radio detector.
Sterols are determined by comparing the eluted peaks with runs of commercial standards of lanosterol, ergosterol, desmosterol, zymosterol, 7-dehydrocholesterol, lathosterol and cholesterol or laboratory standards (FF-MAS-4,4-Dimethylcholesta-8(9),14,24-triene-3β-ol- and T-MAS-4,4-Dimethylcholesta8(9),24,diene-3,6-ol, Laboratory of Reproductive Biology, The Juliane Marie Center for Children, Women and Reproduction, University Hospital of Copenhagen, DK-2100 Copenhagen, Denmark). Results were normalized on ergosterol quantity and protein concentration. Results are presented as a mean from 4 separated experiments.
The influence of a 10 μM solution of novel LK-substances on cholesterol biosynthesis in the assay on HepG2 cells is presented in Table I. Compounds are arranged according to the building blocks, three of them are 2-pyridineethanols, 2-pyridineethylpiperazines and pyridinemethylpiperazines.
Normal medium pertains to cell cultures without a compound of the invention. Its sterol levels were used for normalization. 10 μM solution of atorvastatin serves as a positive control.

[2] = Table II (arranged by sterol profile), 10 μM compound, normalized to normal medium (1.00)

OC(CN1CCN(CCc2ccccc2)CC1)c1cccnc1 (stereo not drawn) (as salt: hydrobromid) [LK-980, 2-(4-Phenethylpiperazine-1-yl)-1-(pyridine3-yl)-1-ethanol trihydrobromide] gave a melting point of 178 to 181 °C.

Molecule c1ccc(CCN2CCN(CCc3cccnc3)CC2)cc1 (as salt: hydrobromid) [LK-9100, 1-Phenethyl-4-(2-(pyridine-3-yl)ethyl)piperazine trihydrobromide] has a melting point of 219 to 222 °C.

Molecule COc1ccc(CN2CCN(CCc3ccccc3)CC2)cn1 (as salt: hydrobromid) [LK-9106, 1-((6-Methoxypyridin-3-yl)methyl)-4-phenethylpiperazine trihydrobromide] has a melting point of 215 to 217 °C.

With FC(F)(F)c1ccc(CN2CCN(CCc3ccccc3)CC2)cn1 (as salt: hydrobromid) [LK-9107, 1-Phenethyl-4-((6(trifluoromethyl)pyridine-3-yl)methyl)piperazine trihydrobromide] the melting point was 225 to 228 °C.

For FC(F)(F)c1cnc(N2CCCN(CCc3ccccc3)CC2)c(Cl)c1 (as salt: hydrobromid) [LK-9115, 1-(3-Chloro-5-(trifluoromethyl)pyridine-2-yl)-4-phenethyl-1,4-diazepane trihydrobromide], the melting point was 175 to 177 °C.

In the case of Fc1ccc(CCN2CCN(CCc3ccncc3)CC2)cc1F (as salt: hydrobromid) [LK-9131, 1-(3,4-di-Fluorophenethyl)-4-(2-(pyridin-4-yl)ethyl)piperazine trihydrobromide], the melting point is reported as 256 to 259 °C.

For Clc1ccc(CCN2CCN(CCc3ccncc3)CC2)cc1Cl (as salt: hydrobromid) [LK-9135, 1-(3,4-Dichlorophenethyl)-4-(2-(pyridin-4-yl)ethyl)piperazine trihydrobromide], the melting point was 253 to 255 °C.

For Clc1ccc(CCN2CCN(CCc3ccccn3)CC2)cc1Cl (as salt: hydrobromid) [LK-9137, 1-(3,4-Dichlorophenethyl)-4-(2-(pyridin-2-yl)ethyl)piperazine trihydrobromide], the melting point was 207 to 209 °C.

With Fc1ccc(CCN2CCN(CCc3ccccn3)CC2)cc1F (as salt: hydrobromid) [LK-9138, 1-(3,4-Difluorophenethyl)-4-(2-(pyridin-2-yl)ethyl)piperazine trihydrobromide] the melting point was 212 to 213 °C.

c1ccc(CCN2CCN(CCCc3cccnc3)CC2)cc1 (as salt: hydrobromid) [LK-9140, 1-Phenethyl-4-(3-(pyridine-3-yl)propyl)piperazine trihydrobromide] showed a melting point of 262 to 264 °C.

For OC(CN1CCN(c2ccc(F)cc2)CC1)c1cccnc1 (stereo not drawn) (as salt: hydrobromid) [LK-9144, 2-(4-(4-Fluorophenyl)piperazine-1-yl)-1-(pyridine-3-yl)ethanol trihydrobromide], the melting point was 198 to 201 °C.

Work on OC(CN1CCN(Cc2ccc(F)cc2)CC1)c1cccnc1 (stereo not drawn) (as salt: hydrobromid) [LK-9148, 2-(4-(4-Fluorobenzyl)piperazine-1-yl)-1-(pyridine-3-yl)ethanol trihydrobromide] yielded a melting point of 220 to 223 °C.

In the case of OC(CN1CCN(CCc2ccccc2)CC1)c1ccc2ccccc2c1 (stereo not drawn) [LK-9111B, 1-(Naphthalen-2-yl)-2-(4-phenethylpiperazin-1-yl)ethanol], the “FF-MAS accumulation (in words)” value ([1]; 10 μM) is reported as “notably accumulate FF-MAS”, the “lanosterol level (in words)” value ([1]; 10 μM, relative to normal medium) is reported as “indicates lanosterol accumulation” and the activity at 10 µM ([1]; 10 μM compound, read-out: FF-MAS) is reported as 901%. The activity at 10 µM ([1]; 10 μM compound, read-out: cholesterol) was 0%, the activity at 10 µM ([1]; 10 μM compound, read-out: desmosterol) was 0% and the activity at 10 µM ([1]; 10 μM compound, read-out: lanosterol) was 197%. It also gave an activity at 10 µM ([1]; 10 μM compound, read-out: lathosterol) of 46%, an activity at 10 µM ([1]; 10 μM compound, read-out: zymosterol+7-dehydrocholesterol) of 171% and an FF-MAS [1, 2] of 9.01. For the same molecule, the cholesterol [1, 2] was 0.00, the desmosterol [1, 2] was 0.00 and the lanosterol [1, 2] was 1.97. For the same molecule, the lathosterol [1, 2] was 0.46, the “zymosterol+7-dehydrocholesterol” value [1, 2] was 1.71 and the melting point was 126 to 129 °C.
